Data taken from patent US20110003015A1, “STABILIZED COMPOSITION COMPRISING AT LEAST ONE ADRENERGIC COMPOUND” (ALK AG, priority 2009, published 2011).
Like-named read-outs stand apart in the source and are kept apart here.

Tests used:
[1] = remark: listed apart in the source
Method: The formulation solutions were prepared at a level of 1.0 mg/ml adrenaline (in the form of the tartrate), pH 3.4 containing, 0.6% sodium chloride, with various molar ratios (0.25-0.59) of sodium metabisulfite added. The metabisulfite/adrenaline molar ratios tested were 0.25, 0.34, 0.42, 0.5 and 0.59, which correspond to sulfite/adrenaline ratios of 0.5, 0.68, 0.84, 1.0 and 1.18, respectively. For the ease of reference to the general description and claims of this specification, the said values correspond to a molar ratio of adrenaline to sulfite of 2.0, 1.47, 1.19, 1.0 and 0.85, respectively.
Each sample solution was split into two lots. For each sample solution, one lot was placed at the accelerated test temperature of 60° C., protected from light and the other lot placed in a photo-stability cabinet at 25° C. which provided 13400 lux visible light, 1.50 W.h/m^2 UV. Samples were pulled from both conditions at 0, 7, 14 and 28 days At each pull point, the appearance of the test solution was assessed, the pH measured and the adrenaline content measured together with impurities.

[2] = at the metabisulfite levels contemplated; 60° C.
Method: A 1.1 mg/ml solution of adrenaline (6.004×10^−3 M), in the form of the tartrate, pH 3.4 and containing 0.6% sodium chloride was used. A range of metabisulfite antioxidant concentrations, with and without admixture of 0.25% di-sodium edetate as chelating agent were tested. The metabisulfite/adrenaline molar ratios tested were 0.1, 0.2, 0.5, 1.0 and 1.5, which correspond to sulfite/adrenaline ratios of 0.2, 0.4, 1.0, 2.0 and 3.0, respectively. For the ease of reference to the general description and claims of this specification, the said values correspond to a molar ratio of adrenaline to sulfite of 5.0, 2.5, 1.0, 0.5 and 0.33, respectively.
The accelerated test temperature was 60° C., protected from light, and samples were pulled at 0, 7, 14, 21 and 28 days. At each pull point, the appearance of the test solution was assessed, the pH measured and the solution assayed for adrenaline content. The appearance of degradation products was noted as area %.
[adr]^+ relates to samples containing 0.025% di-sodium edetate, whereas [adr] relates to samples containing no chelating agent.

SMILES | pH for maximum stability of epinephrine in solution | molar ratio of metabisulfite to adrenaline in which stability of adrenaline is improved [1] | optimum sulfite:adrenaline ratio ([1]; Examples 2 and 3 summarised, 60° C., FIGS. 8 and 9) | first choice of metabisulfite content with respect to adrenaline ([1]; considering both thermal and photo stresses) | best metabisulfite:adrenaline ratio on the basis of total impurities ([1]; heat stress 60° C.) | best metabisulfite:adrenaline ratio on the basis of total impurities ([1]; photo-stress, 25° C., 13400 lux visible light, 1.50 W.h/m^2 UV) | advantage of using a chelating agent for adrenaline solution stability [2]
CNC[C@H](O)c1ccc(O)c(O)c1 [adrenaline, (R)-4-(1-hydroxy-2-(methylamino)ethyl)benzene-1,2-diol] | about 3.4 | 0.25-0.59 | about 1.0 | half molar | 0.42 | 0.5 | 
O=C([O-])CN(CCN(CC(=O)[O-])CC(=O)O)CC(=O)O.[Na+].[Na+] [di-sodium edetate] |  |  |  |  |  |  | no advantage
